Assay results taken from ChEMBL document CHEMBL1156814, “Highly suppressing wild-type HIV-1 and Y181C mutant HIV-1 strains by 10-chloromethyl-11-demethyl-12-oxo-calanolide A with druggable profile” (J Med Chem, 2010).

Columns and labels:
[1] = test system: Human immunodeficiency virus 1; assay: Antiviral activity against 100 TCID50 HIV1 infected in human TZM-b1 cells assessed as inhibition of viral replication by pseudovirus based assay; format: functional, organism-based
[2] = Selectivity index, ratio of IC50 for African green monkey Vero cells to EC50 for HIV1; format: toxicity, cell-based; conditions: read-out: Selectivity Index
[3] = Toxicity in African green monkey Vero cells; format: cell-based; conditions: chlorocebus sabaeus
[4] = Human immunodeficiency virus 1, TZM-b1, read-out: EC50

CCCc1cc(=O)oc2c3c(c4c(c12)OC(C)(C)C=C4)OC(CBr)CC3=O (configuration not stated)
EC50 [1, 4]: 0.18 µM

CCCc1cc(=O)oc2c3c(c4c(c12)OC(C)(C)C=C4)OC(CNC(=O)Nc1ccc(F)cc1)CC3=O (configuration not stated)
EC50 ([1]; tzm-b1): Not Active

CCCc1cc(=O)oc2c3c(c4c(c12)OC(C)(C)C=C4)OC(CNC(=O)Nc1ccccc1OC)CC3=O (configuration not stated)
EC50 ([1]; tzm-b1): Not Active

CCCc1cc(=O)oc2c3c(c4c(c12)OC(C)(C)C=C4)OC(CSC)CC3=O (configuration not stated)
EC50 [1, 4]: 0.456 µM

CCCc1cc(=O)oc2c3c(c4c(c12)OC(C)(C)C=C4)OC(CN1CCCC1)CC3=O (configuration not stated)
EC50 ([1]; tzm-b1): Not Active

CCCc1cc(=O)oc2c3c(c4c(c12)OC(C)(C)C=C4)OC(COC)CC3=O (configuration not stated)
selectivity ratio [2]: 39.7
EC50 [1, 4]: 0.18 µM
CC50 [3]: 9.89 µM

CCCc1cc(=O)oc2c3c(c4c(c12)OC(C)(C)C=C4)OC(C[S+](C)[O-])CC3=O (configuration not stated)
EC50 [1, 4]: 14.4 µM

CCCc1cc(=O)oc2c3c(c4c(c12)OC(C)(C)C=C4)OC(CS(C)(=O)=O)CC3=O (configuration not stated)
EC50 [1, 4]: 33.9 µM

CCCc1cc(=O)oc2c3c(c4c(c12)OC(C)(C)C=C4)OC(CNS(=O)(=O)c1ccc(NC(C)=O)cc1)CC3=O (configuration not stated)
EC50 ([1]; tzm-b1): Not Active

CCCc1cc(=O)oc2c3c(c4c(c12)OC(C)(C)C=C4)OC(CNS(=O)(=O)c1ccc(F)cc1)CC3=O (configuration not stated)
EC50 ([1]; tzm-b1): Not Active
